Data taken from patent US11458102B2, “Acetaminophen preparation, and method for producing same” (NIPPON ZOKI PHARMACEUTICAL CO., LTD., priority 2017, dated 2022).

Experiment: Particle size distribution of acetaminophen drug substance by laser-diffraction method (dry measurement)
Format: physicochemical
Text: The acetaminophen to be used in the present invention (also referred to as “the present acetaminophen”) has a particle size distribution in which d10 is generally 5 to 200 μm, preferably 10 to 150 μm, more preferably 12 to 100 μm, and d90 is generally 200 to 1800 μm, preferably 250 to 1600 μm, more preferably 280 to 1450 μm. Although there are some differences in the particle size distribution among lots, the unpulverized acetaminophen generally has the above-specified particle size distribution. In contrast, although there are some differences in the particle size distribution of a pulverized product of acetaminophen among the manufacturers of the drug substance and production lots, a pulverized product of acetaminophen generally has a particle size distribution in which the d10 is 3 to 10 μm and d90 is 100 to 250 μm, and therefore the particle diameters of the pulverized product of acetaminophen are smaller compared with those of the present acetaminophen. In the present invention, the particle size distribution is determined by a volume distribution evaluation employing a laser-diffraction method (Measuring Instrument: e.g., Mastersizer 2000 or Mastersizer 3000 (Malvern), Dispersion compression air pressure: 2 to 4 Bar), and the terms “d10”, “d50”, and “d90” refer to particle diameters at a volume cumulative 10% point, a volume cumulative 50% point, and a volume cumulative 90% point, respectively, as observed from the smaller diameter side in the particle size distribution. “a laser-diffraction method” is also referred to as “a laser-diffraction scattering method” Each of unpulverized products of acetaminophen (lots A to P) and pulverized products of acetaminophen (lots a to b) was subjected to a particle size distribution measurement using a particle measurement method (dry measurement) by a laser-diffraction method. As an instrument, a dry automated dispersion unit microtray (Mastersizer 2000 or Mastersizer 3000, Malvern) was used, the dispersion compression air pressure was 2 Bar or 4 Bar, and the analysis of particle size distribution was performed by a volume conversion method. […] The range of the particle size distribution in the present invention is determined with taking the above-mentioned finding into consideration. The lots of the acetaminophen drug substances shown in Table 1 are different from each other with respect to the conditions for manufacturing thereof, such as temperature and humidity. […] For example, the results of (1) to (2) of lot E and (1) to (12) of lot H in Table 1 are the results for different measurement samples of the same lots. As apparent from the results, the measurement results may vary depending on the zones of sampling even when the samples are of the same lot or depending on the types of measurement instrument to be used even when the measurement is carried out by the same method.

[1] = Mastersizer 2000, laser diffraction, volume distribution, dry, listed as E
[2] = Mastersizer 3000, laser diffraction, volume distribution, dry
[3] = Mastersizer 2000, laser diffraction, volume distribution, dry, listed as H
[4] = Mastersizer 2000, laser diffraction, volume distribution, dry, listed as P
[5] = Mastersizer 2000, laser diffraction, volume distribution, dry, listed as I
[6] = Mastersizer 2000, laser diffraction, volume distribution, dry, listed as D
[7] = measurement instrument printed as dash, listed as d
[8] = Mastersizer 2000, laser diffraction, volume distribution, dry, listed as J
[9] = Mastersizer 2000, laser diffraction, volume distribution, dry, listed as M
[10] = Mastersizer 2000, laser diffraction, volume distribution, dry, listed as A
[11] = Mastersizer 2000, laser diffraction, volume distribution, dry, listed as a
[12] = Mastersizer 2000, laser diffraction, volume distribution, dry, listed as L
[13] = Mastersizer 2000, laser diffraction, volume distribution, dry, listed as O
[14] = Mastersizer 2000, laser diffraction, volume distribution, dry, listed as K
[15] = Mastersizer 2000, laser diffraction, volume distribution, dry, listed as N
[16] = Mastersizer 2000, laser diffraction, volume distribution, dry, listed as C
[17] = measurement instrument printed as dash, listed as c
[18] = Mastersizer 2000, laser diffraction, volume distribution, dry, listed as B
[19] = Mastersizer 2000, laser diffraction, volume distribution, dry, listed as b
[20] = Mastersizer 2000, laser diffraction, volume distribution, dry, listed as F
[21] = Mastersizer 2000, laser diffraction, volume distribution, dry, listed as G

CC(=O)Nc1ccc(O)cc1 [Lot E, acetaminophen]
Particle Diameters D10 [1]: 16 μm | Particle Diameters D90 [1]: 361 μm | Particle Diameters D10 [2]: 66 μm | Particle Diameters D90 [2]: 1290 μm

CC(=O)Nc1ccc(O)cc1 [Lot H, acetaminophen]
Particle Diameters D10 [3]: 23 μm | Particle Diameters D90 [3]: 429 μm

CC(=O)Nc1ccc(O)cc1 [Lot P, acetaminophen]
Particle Diameters D10 [4]: 20 μm | Particle Diameters D90 [4]: 424 μm

CC(=O)Nc1ccc(O)cc1 [Lot I, acetaminophen]
Particle Diameters D10 [5]: 22 μm | Particle Diameters D90 [5]: 433 μm

CC(=O)Nc1ccc(O)cc1 [Lot D, acetaminophen]
Particle Diameters D10 [6]: 20 μm | Particle Diameters D90 [6]: 464 μm | Particle Diameters D10 [7]: 10 μm | Particle Diameters D90 [7]: 192 μm

CC(=O)Nc1ccc(O)cc1 [Lot J, acetaminophen]
Particle Diameters D10 [8]: 27 μm | Particle Diameters D90 [8]: 404 μm

CC(=O)Nc1ccc(O)cc1 [Lot M, acetaminophen]
Particle Diameters D10 [9]: 27 μm | Particle Diameters D90 [9]: 419 μm

CC(=O)Nc1ccc(O)cc1 [Lot A, acetaminophen]
Particle Diameters D10 [10]: 20 μm | Particle Diameters D90 [10]: 320 μm | Particle Diameters D10 [11]: 4 μm | Particle Diameters D90 [11]: 166 μm

CC(=O)Nc1ccc(O)cc1 [Lot L, acetaminophen]
Particle Diameters D10 [12]: 30 μm | Particle Diameters D90 [12]: 486 μm

CC(=O)Nc1ccc(O)cc1 [Lot O, acetaminophen]
Particle Diameters D10 [13]: 24 μm | Particle Diameters D90 [13]: 387 μm

CC(=O)Nc1ccc(O)cc1 [Lot K, acetaminophen]
Particle Diameters D10 [14]: 22 μm | Particle Diameters D90 [14]: 442 μm

CC(=O)Nc1ccc(O)cc1 [Lot N, acetaminophen]
Particle Diameters D10 [15]: 26 μm | Particle Diameters D90 [15]: 439 μm

CC(=O)Nc1ccc(O)cc1 [Lot C, acetaminophen]
Particle Diameters D10 [16]: 26 μm | Particle Diameters D90 [16]: 419 μm | Particle Diameters D10 [17]: 6 μm | Particle Diameters D90 [17]: 104 μm

CC(=O)Nc1ccc(O)cc1 [Lot B, acetaminophen]
Particle Diameters D10 [18]: 30 μm | Particle Diameters D90 [18]: 551 μm | Particle Diameters D10 [19]: 4 μm | Particle Diameters D90 [19]: 144 μm

CC(=O)Nc1ccc(O)cc1 [Lot F, acetaminophen]
Particle Diameters D10 [20]: 31 μm | Particle Diameters D90 [20]: 488 μm

CC(=O)Nc1ccc(O)cc1 [Lot G, acetaminophen]
Particle Diameters D10 [21]: 24 μm | Particle Diameters D90 [21]: 432 μm
